Assay results published in US20260262641A1 (priority 2023, published 2026).

Assays:
Assay type in all cases: in vivo
[1] = tested on: ground pearl (Margarodes spp); test: Field trial in kikuyu turf, control of ground pearl, Robina (Example 6); details: sc
[2] = tested on: ground pearl (Margarodes spp); test: as above; details: for Ground pearls/plot, Adults, Pre-spray / Ground pearls/plot, Eggs, Pre-spray: Pre-spray (baseline), 20 cores per plot; for density of ground pearl eggs and adults (in words) / turf vigor (in words): versus untreated, P<0.05
Experimental: A field trial was conducted in kikuyu turf, to evaluate fenpyroximate for control of ground pearl (Margarodes spp). The trial was located at Robina, Queensland (−28.069442, 153.401817), in an area with a known infestation of ground pearl.
All treatments were applied using a hand boom fitted with XC08 nozzles, in a spray volume of 443 L/ha.
The ground pearl density by species was assessed prior to the first application and again 21 days after the third application by sampling 20 cores per plot and recording the number of eggs and adults. Turf vigor was assessed on a 0 to 10 rating scale (0=dead; 10=best quality/color) prior to the first application and 42 days after the third application.
(§1) All data was statistically analyzed using analysis of variance and Fisher's protected least significant different test (Fishers LSD). The level of significance for all tests was P<0.05.

[3] = tested on: ground pearl (Margarodes spp); test: Field trial in kikuyu turf, control of ground pearl, Sydney (Example 2); details: for NDVI, Pre-spray: Pre-spray (baseline), kikuyu turf, Greenseeker; for Ground pearls/plot, Adults, Pre-spray / Ground pearls/plot, Eggs, Pre-spray / Ground pearls/plot, Adults, 56 DAA3 / Ground pearls/plot, Eggs, 56 DAA3 / NDVI, 56 DAA3: sc; for Ground pearls/plot, Adults, 56 DAA3 / Ground pearls/plot, Eggs, 56 DAA3: 200 g/ha; for Ground pearls/plot, Adults, 56 DAA3 / Ground pearls/plot, Eggs, 56 DAA3 / NDVI, 56 DAA3: 1344 h
Experimental: A field trial was conducted in kikuyu turf, to evaluate fenpyroximate for control of ground pearl (Margarodes spp). The trial was located at Sydney University, New South Wales (−33.888, 151.188), in an area with a known infestation of ground pearl.
All treatments were applied using a hand boom fitted with XR11004 nozzles, in a spray volume of 430 L/ha.
The ground pearl density by species was assessed by sampling 20 cores per plot and recording the number of eggs and adults, and Normalized Difference Vegetation Index (NDVI) was assessed 56 days after the third application using a Greenseeker.
as §1

[4] = versus untreated, P<0.05, with PE 6200

Row | SMILES | Turf vigor (0-10), 56 DAA3 [1] | Turf vigor (0-10), Pre-spray [2] | Ground pearls/plot, Adults, Pre-spray [2] | Ground pearls/plot, Eggs, Pre-spray [2] | density of ground pearl eggs and adults (in words) [2] | turf vigor (in words) [2] | NDVI, Pre-spray [3] | Ground pearls/plot, Adults, Pre-spray [3] | Ground pearls/plot, Eggs, Pre-spray [3] | Ground pearls/plot, Adults, 56 DAA3 [3] | Ground pearls/plot, Eggs, 56 DAA3 [3] | NDVI, 56 DAA3 [3] | density of ground pearl eggs (in words) [3, 4] | density of ground pearl adults (in words) [3, 4]
1 | O=[N+]([O-])NC1=NCCN1Cc1ccc(Cl)nc1 [Kohinor 350 SC, Imidacloprid] | 5.9 a | 5.1 | 5.7 ground pearls/plot | 2.0 ground pearls/plot | significantly reduced | significantly improved | 8.25 | 10.5 a ground pearls/plot | 9.0 a ground pearls/plot | 13.8 a ground pearls/plot | 12.5 cd ground pearls/plot | 7.8 | did not reduce | 
2 | CN1COCN(Cc2cnc(Cl)s2)/C1=N\[N+](=O)[O-] [Meridian, Thiamethoxam] | 6.0 a | 5.1 | 6.0 ground pearls/plot | 3.0 ground pearls/plot | significantly reduced | significantly improved | 7.5 | 15.5 a ground pearls/plot | 7.8 a ground pearls/plot | 9.8 a ground pearls/plot | 8.5 abc ground pearls/plot | 7.5 | significantly reduced | significantly reduced
